Data taken from patent US20070043108A1, “Use of equol for ameliorating or preventing neuropsychiatric and neurodegenerative diseases or disorders” (priority 2002, published 2007).
Like-named read-outs stand apart in the source and are kept apart here.

Key:
[1] = tested on: Adult male Sprague-Dawley rats; assay: Example 3: prostate, epididymis and body weight gain in male rats treated with racemic, R- or S-equol; type: in vivo, rat; conditions: for Body Wt Gain (g) / Epididymis (g) / Prostate (g): 0.25 mg/kg/day sc, seven days
Protocol: Adult male Sprague-Dawley rats are randomly assigned to […] groups and receive daily injections of either DMSO, a racemic mixture of equol at 0.250 mg/kg/day), R-equol at 0.250 mg/kg/day, or S-equol at 0.250 mg/kg/day. The total volume of each injection is 0.3 cc, administered sc at the nape of the rat's neck. After seven consecutive days of treatment, the rats are killed and the body weight gain during the injection period is determined.

[2] = humans; cited from earlier work
[3] = molecular target: T1, AR (Rattus norvegicus, UniProt P15207); assay: Binding to the androgen receptor (prostate supernatant, [3H]DHT)
T1 construct: incubated with prostate supernatant and then passed through the 30 cm column; from tissue; host or cells: prostate supernatant
T1 sequence (P15207 1-902): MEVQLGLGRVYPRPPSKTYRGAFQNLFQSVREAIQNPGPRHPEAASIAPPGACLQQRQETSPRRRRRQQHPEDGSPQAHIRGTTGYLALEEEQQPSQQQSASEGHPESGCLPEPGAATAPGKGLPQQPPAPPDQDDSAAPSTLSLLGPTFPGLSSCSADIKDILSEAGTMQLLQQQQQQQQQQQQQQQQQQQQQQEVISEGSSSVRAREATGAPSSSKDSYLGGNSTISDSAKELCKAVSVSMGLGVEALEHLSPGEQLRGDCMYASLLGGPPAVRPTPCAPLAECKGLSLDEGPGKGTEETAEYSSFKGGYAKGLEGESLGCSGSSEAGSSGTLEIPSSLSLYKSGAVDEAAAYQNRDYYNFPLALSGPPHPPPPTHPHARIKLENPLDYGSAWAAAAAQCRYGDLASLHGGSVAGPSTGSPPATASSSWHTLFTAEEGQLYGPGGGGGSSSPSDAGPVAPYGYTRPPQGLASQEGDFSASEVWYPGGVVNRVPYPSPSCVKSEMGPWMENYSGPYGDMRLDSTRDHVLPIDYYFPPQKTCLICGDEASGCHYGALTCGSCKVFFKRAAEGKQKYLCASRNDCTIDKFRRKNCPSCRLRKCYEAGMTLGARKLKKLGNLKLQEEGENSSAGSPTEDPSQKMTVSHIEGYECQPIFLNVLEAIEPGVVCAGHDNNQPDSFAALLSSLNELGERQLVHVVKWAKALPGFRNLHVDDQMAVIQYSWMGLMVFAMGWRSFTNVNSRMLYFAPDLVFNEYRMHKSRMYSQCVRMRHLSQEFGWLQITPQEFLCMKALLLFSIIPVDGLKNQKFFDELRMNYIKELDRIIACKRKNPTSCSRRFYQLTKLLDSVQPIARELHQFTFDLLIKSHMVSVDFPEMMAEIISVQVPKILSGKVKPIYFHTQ

[4] = tested on: Adult male Sprague-Dawley rats; assay: Example 15: elevated plus maze of equol injected male rats; type: in vivo, rat; conditions: 0.250 mg/Kg/day sc, seven days, n = 8
Description: The elevated plus maze is a behavioral test used to quantify anxiety-related behavior and identify anxiolytic drugs (Pellow S. et al., J Neurosci Methods, 14:149-147 (1985); Current Protocols In Neuroscience (1997) 8.3.1-8.3.15, John Wiley & Sons. NY, N.Y.). The test relies on the inherent conflict between exploration of a novel environment and avoidance of its aversive features. Normally, animals spend little time and make few entries into the open arms of the maze compared to the closed arms of the maze (Imhof J. T. et al., Behav Brain Res, 56:177-180 (1993). However, animals treated with anxiolytics, such as benzodiazepines (valium), spend more time in the open arms and the number of entries into the open arms reflects a decrease in anxiety-related behaviors (Pellow S. et al., J Neurosci Methods, 14:149-147 (1985); Current Protocols In Neuroscience (1997) 8.3.1-8.3.15, John Wiley & Sons. NY, N.Y.; Chopin P. et al., Psychopharm, 110:409-414 (1993).
Adult male Sprague-Dawley rats receive daily injections of either DMSO, racemic equol (0.250 mg/Kg/day), R-equol (0.250 mg/Kg/day), or S-equol (0.250 mg/Kg/day) in a total volume of 0.3 cc DMSO by subcutaneous injection. At the end of seven consecutive days of treatment the animals are tested in the elevated plus maze in order to quantify anxiety-related behaviors.

[5] = tested on: Male Sprague-Dawley rats; assay: Example 1: prostate size and hormone secretion in intact male rats injected sc with racemic equol; type: in vivo, rat; conditions: intact males, 0.25 mg/kg sc 1/day for 4 days, vs control
Protocol: Male Sprague-Dawley rats (400-500 grams) are obtained from Charles Rivers Laboratories (Wilmington, Mass., USA). Rats are caged in pairs and maintained on a 12-hour dark 12-hour light schedule (lights on at 0700 h) with ad libitum access to food and water.
One week following arrival, animals are given subcutaneous (sc) injections (1/day for 4 days) of either dimethylsulfoxide (DMSO) (vehicle control) or racemic equol (0.25 mg/kg). Eighteen hours after the final injection, animals are killed via decapitation and trunk blood and prostate are collected for analysis.

[6] = Bioavailability of R-equol after oral administration to a healthy adult; type: in vivo, human
Protocol: 20 mg of pure R-equol was administered orally to a healthy adult after an overnight fast. Blood samples were collected at timed intervals over the next 24 hours and the plasma concentration of equol was determined by isotope dilution gas chromatography-mass spectrometry with selected ion monitoring. Rapid appearance of equol is observed in the plasma with peak concentrations observed after 8 hours. The terminal elimination half-life of R-equol was approximately 8 hours.

SMILES	Body Wt Gain (g) [1]	Epididymis (g) [1]	Prostate (g) [1]	decrease in body weight ([1]; equol experiments)	reduction in white adipose tissue deposition ([1]; racemic equol injections)	proportion circulating in the free or unbound form in plasma [2]	binding to the androgen receptor [3]	binding to the androgen receptor ([3]; listed as Equol racemic)	Center Area [4]	Open Arm Time [4]	luteinizing hormone (LH) [5]	prostate weight [5]	bioavailability ([6]; 20 mg orally)	time of peak plasma concentrations ([6]; 20 mg orally after overnight fast, healthy adult)	stability of the enantiomer in vivo (racemization, biotransformation) ([6]; equol in plasma by ESI-MS after 20 mg orally)	half-life ([6]; human, plasma, po, 20 mg orally, healthy adult, read-out: terminal elimination half-life (converted))
Oc1ccc(C2COc3cc(O)ccc3C2)cc1 (racemic) [equol, 7-hydroxy-3(4′hydroxyphenyl)-chroman]	56.1 (±3.7) g	0.89 (±.03) g	0.38 (±0.02) g	around 10%	around 36%	Approximately 50%	does not compete with 5α-DHT for the AR	does not bind the androgen receptor	37.1 ± 6.3 s	40.9 ± 7.0 s	significantly increased	significant reduction	–	–	–	–
Oc1ccc([C@@H]2COc3cc(O)ccc3C2)cc1 [R-equol]	45.6 (±5.5) g	0.85 (±0.04) g	0.31 (±0.02) g	–	–	–	does not bind the androgen receptor	–	36.4 ± 7.6 s	50.0 ± 10.0 s	–	–	extremely bioavailable	8 h	does not undergo any racemization or further biotransformation in the intestine	~8 h
